Measurements reported in patent publication US5037812A, “Tumor cell growth-inhibiting pharmaceutical compositions containing phosphino-hydrocarbon-gold, silver or copper complexes” (priority 1986, dated 1991).
Several values for one entry are separate records, joined by “and”; a condition that tells them apart may be missing. Equal values may be shown once.

Tests used:
[1] = Struck et al., J. Med. Chem., 9, 414-416 (1966); cited from earlier work
[2] = test system: mammary adenocarcinoma 16/c; experiment: sc mammary adenocarcinoma 16/c tumor model; format: in vivo, mice (C3H); details: q4D × 5, 6 mg/kg; for Inhibition: Day 21
Procedure: In this experiment, the tumor was implanted sc in C3H mice, and the drug was administered ip or iv on an intermittent treatment schedule, i.e., once on days 1, 5, 9, 13 and 17. Tumors were measured 3 weeks after implantation, and activity was assessed by degree of tumor growth inhibition.
*N.P. = Proportion of mice without palpable tumors on Day 21

[3] = test system: mammary adenocarcinoma 16/c; details: positive control, general statement; cited from earlier work
[4] = test system: M5076 reticulum cell sarcoma; details: positive control, general statement; cited from earlier work
[5] = test system: B16 melanoma; experiment: in vivo ip B16 melanoma assay; set-up: species or system mice (B6D2F1); details: ip qDX10; for MTD (maximally tolerated dose): B6D2F1 mice; for ILS (maximum increase in lifespan): mice bearing ip B16 melanoma, slash-separated figures are separate experiments
Procedure: Daily treatment is begun 24 hours after tumor implantation and is continued daily for ten (10) days. The route of drug administration is ip. The mice are monitored daily for survival for sixty (60) days. Antitumor activity is assessed by prolongation of median survival time. An ILS of ≥25% indicates activity in this tumor model.
^(b) maximally tolerated dose for B6D2F1 mice on an ip qDX10
^(c) maximum increase in lifespan produced in mice bearing ip B16

[6] = test system: P388 leukemia; experiment: ip P388 leukemia mouse model; format: in vivo, mice (B6D2F1); details: for MTD (maximally tolerated dose): B6D2F female mice, ip qDX5; for ILS max (maximum increase in lifespan): mice bearing ip P388 leukemia, ip days 1-5 at MTD, slash-separated figures are separate experiments
Procedure: This tumor system is widely accepted as an antitumor agent screening tool because it is sensitive to virtually all of the clinically active antineoplastic agents; quantitative and reproducible; amenable for large-scale screening; and predictive for activity in other animal tumor models.
10^6 P388 leukemia cells are inoculated ip in B6D2F1 mice. Twenty-four hours later, if the tumor inoculum proves to be free of bacterial contamination (as determined by 24 hours incubation in thioglycollate broth), animals are randomized into groups of 6 and housed in shoebox cages. […] An equal volume of saline or water is added; if the drug comes out of solution an equal volume of Cremophor (polyethoxylated castor oil) is added and then saline or water, as to a concentration such that the desired dose is delivered in 0.5 ml. The final concentration of DMA, ethanol or Cremophor is 10 percent. Dilutions for lower doses are made with saline or water so that there is a decreasing proportion of organic solvents in the vehicle with decreasing dosage. […] Formulations are prepared immediately prior to injection. The Formula (I) and Formula (II) compounds are administered ip on Days 1 through 5 (i.e., treatment is initiated 24 hrs after tumor inoculation). Each experiment includes three groups of 6 animals as untreated controls and animals treated with a positive control, cisplatin, at two dose levels. Animals are weighed as a group on Days 1, 5 and 9 and average weight change (Δwt.) is used as a reflection of toxicity. Each experiment also includes an inoculum titration--groups of 8 mice inoculated ip with 10^5 to 10^0 P388 leukemia cells. The titration is used as a quality control check for the performance of the tumor model. Animals are monitored daily for mortality and experiments are terminated after 45 days. The endpoint is median survival time (MST) and increase in lifespan (ILS) which is the percentage of increase in MST relative to untreated controls.

[7] = test system: M5076 reticulum cell sarcoma; experiment: ip M5076 reticulum cell sarcoma in mice; format: in vivo, mice (B6D2F female); details: for MTD (maximally tolerated dose): B6D2F female mice, ip qDX10; for ILS max (maximum increase in lifespan): mice bearing ip M5076, ip qDX10 at MTD, slash-separated figures are separate experiments
Procedure: Another tumor model used for evaluation of tumor growth inhibiting drugs is intraperitoneally implanted M5076 reticulum cell sarcoma in mice. […] Drugs are administered ip. Daily treatment is begun 24 hours after implantation and is continued for ten days. The treatment regimen for M5076 is more prolonged than for P388 because of the slower growth rate and longer control survival time of the M5076 tumor. Compounds of Formula (I) and Formula (II) were evaluated in this assay. An evaluation of several compounds of Formula (I) in the M5076 reticulum cell sarcoma assay at their maximally tolerated dose (MTD) is set forth in Table III. An ILS of ≥25% indicates activity in this tumor model.
^(b) maximally tolerated dose for B6D2F female mice on an ip qDX10
^(c) maximum increase in lifespan produced in mice bearing ip M5076

[8] = test system: B16 melanoma cells; experiment: B16 melanoma cell assay, clonogenic capacity in vitro after two-hour exposure; format: cell-based; details: 2-hour exposure; read-out: IC50: concentration which inhibits cloning efficiency of B16 melanoma cells by 50%
Procedure: The B16 melanoma cell assay measures the ability of a compound to inhibit the clonogenic capacity of cells in vitro following a two-hour exposure to the compound.
B16 melanoma (highly metastatic subline, F10) are used and maintained as monolayer cultures in Minimal Essential Media (Grand Island Biological Col., Grand Island, N.Y.) supplemented with 10% calf serum, 1% antibiotics in a 5% CO2 humidified incubator at 37° C. Asynchronous populations of cells are harvested and replated to 5000 cells/plate in sterile 60 mm×15 mm petri plates. Plates are incubated overnight to allow attachment of the cells to the plate. Cells are treated with a Formula (I) or Formula (II) compound/under sterile conditions, allowed to react for 2 hours followed by aspiration of medium. Plates are washed one time with 5 ml of phosphate buffered saline (PBS), followed by the addition of 5 ml of fresh medium. Plates are incubated for 5 days at 37° C. in a CO2 incubator. Viability is measured by the ability of a cell to form a colony of greater than 50 cells. Colonies are fixed with 0.5% crystal violet in 95% ethanol. Plates are dried and counted with a Biotran III Automatic Count Totalizer (New Brunswick Scientific Co., Edison, N.J.). Mean and standard deviation of triplicate samples are determined for each drug concentration. The data are analyzed plotting the log of the survival fraction (number of colonies in drug treated plates/number of colonies in controls) versus the drug concentration.
^a Concentration which inhibits cloning efficiency of B16 melanoma
cells by 50% on a 2hour exposure

[9] = 15 h
Procedure: Such solubility was determined as follows: The compound in question was dissolved or suspended in absolute ethanol (250 mg solid per 1.0 ml ethanol). To the resulting solution or suspension, water (9.0 times the volume of ethanol) was added. This suspension was stirred vigorously for 15 hours, then filtered through a 0.45 μm poly(tetrafluoroethylene) (PTFE) filter. […] The HPLC system was as follows:
Column PLRP-S, 5μm, obtained from Polymer Laboratories, Inc.
Mobile Phase 9:1 acetonitrile:0.1% tetra-n-butylammonium hydrogen sulfate (50° C., 1.0 ml-min-^-1)
Detection Ultraviolet (250 nm)

| Compound | MTD (maximally tolerated dose) [5] | ILS (maximum increase in lifespan) [5] | MTD (maximally tolerated dose) [6] | ILS max (maximum increase in lifespan) [6] | MTD (maximally tolerated dose) [7] | ILS max (maximum increase in lifespan) [7] | IC50 [8] | further results |
| --- | --- | --- | --- | --- | --- | --- | --- | --- |
| c1ccc(P(CCP(c2ccccc2)c2ccccc2)c2ccccc2)cc1 [1,2-bis(diphenyl-phosphino)ethane] |  |  |  |  |  |  |  | cytotoxic activity (in words) [1]: cytotoxic activity |
| N.N.[Cl][Pt][Cl] [Cisplatin, reference compound] |  |  |  |  |  |  |  | Mean Tumor Volume on Day 21 ([2]; Experiment 1, ip): 30 ± 64 mm^3; N.P. (proportion of mice without palpable tumors on Day 21) ([2]; Experiment 1, ip): 6/8; Inhibition ([2]; Experiment 1, ip): 97%; Mean Tumor Volume on Day 21 ([2]; Experiment 2, ip): 0 mm^3; N.P. (proportion of mice without palpable tumors on Day 21) ([2]; Experiment 2, ip): 8/8; Inhibition ([2]; Experiment 2, ip): 100%; Mean Tumor Volume on Day 21 ([2]; Experiment 2, iv): 21 ± 61 mm^3; N.P. (proportion of mice without palpable tumors on Day 21) ([2]; Experiment 2, iv): 7/8; Inhibition ([2]; Experiment 2, iv): 98%; Mean Tumor Volume on Day 21 ([2]; Experiment 3, ip): 586 ± 266 mm^3; N.P. (proportion of mice without palpable tumors on Day 21) ([2]; Experiment 3, ip): 0/8; Inhibition ([2]; Experiment 3, ip): 37%; inhibition of the growth of mammary adenocarcinoma 16/c (in words) [3]: complete inhibition; tumor growth inhibition (in words) [4]: complete tumor growth inhibition |
| [Au+].[Cl-].c1ccc(P(CCCP(c2ccccc2)c2ccccc2)c2ccccc2)cc1.c1ccc(P(CCCP(c2ccccc2)c2ccccc2)c2ccccc2)cc1 [compound 4, Bis[1,3-Bis(diphenylphosphino)propane]Gold(I) Chloride] | 2 mg/kg | 34% and 28% and 40% | 3 mg/kg | 89 ± 28% | 2 mg/kg | 116% | 600 nM |  |
| O=C([O-])C(O)CO.[Au+].c1ccc(P(CCP(c2ccccc2)c2ccccc2)c2ccccc2)cc1.c1ccc(P(CCP(c2ccccc2)c2ccccc2)c2ccccc2)cc1 [compound 25, Bis[1,2-bis(diphenylphosphino)ethane]gold(I) DL-2,3-dihydroxypropanoate] | 0.75 mg/kg | 28% | 2 mg/kg | 55% and 65% |  |  |  | Solubility in 9:1 Water:Ethanol [9]: 2200 µg/mL |
| Bis[1,2-bis(diphenylphosphino)ethane]Silver(I) Nitrate [compound 2] |  |  | 3 mg/kg | 89% and 90% | 2 mg/kg | 48% | 4000 nM |  |
| Bis[cis-1,2-bis(diphenylphosphino)ethylene]Gold(I) Chloride [compound 3] | 1.5 mg/kg | 35% | 2 mg/kg | 92 ± 26% | 2.4 mg/kg | 69% | 2000 nM |  |
| Tris[1,2-bis(diphenylphosphino)ethane]Dicopper(I) Chloride | 1 mg/kg | 54% | 2 mg/kg | 100% and 115% | 1.6 mg/kg | 60% |  |  |
